According to ChEMBL document CHEMBL1201862, “PubChem BioAssay data set” (2004):
One block for each molecule: values may come before it. Active and inactive are the calls of the source.

Columns and labels:
[1] = biological target: T1, Heat shock factor protein 1 (Mus musculus, UniProt P38532); experiment: inhibition of MG132-induced HSE-luciferase signal, confirmation, cell-based, NIH3T3, luminescence, dose retest (AID 2382); type: functional;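 also: NIH3T3 fibroblasts with HSF1-driven luciferase reporter stressed by proteasome inhibitor MG132; luminescence from HSF1-driven luciferase expression after 8 hours of MG132 stress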
T1 sequence (P38532 whole entry): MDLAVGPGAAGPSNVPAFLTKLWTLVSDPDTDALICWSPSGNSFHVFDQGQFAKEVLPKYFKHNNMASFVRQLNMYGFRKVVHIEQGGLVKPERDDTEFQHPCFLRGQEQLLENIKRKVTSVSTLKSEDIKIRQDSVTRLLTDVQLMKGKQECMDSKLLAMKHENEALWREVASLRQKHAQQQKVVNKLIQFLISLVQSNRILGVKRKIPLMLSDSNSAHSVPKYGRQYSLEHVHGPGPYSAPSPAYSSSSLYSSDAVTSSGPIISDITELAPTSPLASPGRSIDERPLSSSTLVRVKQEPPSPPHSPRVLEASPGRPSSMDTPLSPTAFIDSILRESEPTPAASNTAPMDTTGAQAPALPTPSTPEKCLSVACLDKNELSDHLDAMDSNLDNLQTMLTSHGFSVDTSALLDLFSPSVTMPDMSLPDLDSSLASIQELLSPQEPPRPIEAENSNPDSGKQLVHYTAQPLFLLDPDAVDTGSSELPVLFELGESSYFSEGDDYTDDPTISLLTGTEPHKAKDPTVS

Cytochrome P450 2C19 = Cytochrome P450 2C19 (Homo sapiens, UniProt P33261); experiment: Cytochrome panel assay with activity outcomes. Panel member name: p450-cyp2c19 Compounds with AC50 equal or less than 10 uM are considered active; type: functional; conditions: read-out: AC50
Cytochrome P450 2C9 = Cytochrome P450 2C9 (Homo sapiens, UniProt P11712)
Cytochrome P450 3A4 = Cytochrome P450 3A4 (Homo sapiens, UniProt P08684);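 also: CYP3A4 tested as one member of a cytochrome P450 panel screen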
Cytochrome P450 2D6 = Cytochrome P450 2D6 (Homo sapiens, UniProt P10635);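 also: CYP2D6 member of a cytochrome P450 panel assay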
cells [2] = type: functional, cell-based
cells [3] = type: functional, cell-based; remark: listed apart in the source
[4] = cytotoxicity in HEK-293T cells, dose response, cytotoxicity control for BCR NF-kB inhibitor project, luminescence, B-cell screen hits (AID 489021); type: functional, cell-based;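 also: HEK-293T cells carrying an NF-kB luciferase reporter; cells exposed to compound for about 14 hours before viability readout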
Escherichia coli = experiment: microbe, parasite or virus in culture
Protein Wnt-3a = Protein Wnt-3a (Mus musculus, UniProt P27467); experiment: Wnt3a-driven reporter signaling inhibition, dose response, selectivity assay for Gli-SUFU antagonist project, Wnt-LIGHT cells, luminescence (AID 651570); type: functional; conditions: read-out: IC50_Mean;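 also: Wnt-LIGHT reporter cells stimulated with conditioned medium from Wnt3a-producing cells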
[5] = biological target: T2, Corticotropin-releasing factor receptor 2/Corticotropin-releasing factor-binding protein (Homo sapiens, UniProt P24387+Q13324); experiment: Dose Response confirmation of uHTS hits for small molecule antagonists of the CRF-binding protein and CRF-R2 receptor complex.; type: functional; conditions: read-out: IC50_Mean
T2 sequence (Q13324 whole entry): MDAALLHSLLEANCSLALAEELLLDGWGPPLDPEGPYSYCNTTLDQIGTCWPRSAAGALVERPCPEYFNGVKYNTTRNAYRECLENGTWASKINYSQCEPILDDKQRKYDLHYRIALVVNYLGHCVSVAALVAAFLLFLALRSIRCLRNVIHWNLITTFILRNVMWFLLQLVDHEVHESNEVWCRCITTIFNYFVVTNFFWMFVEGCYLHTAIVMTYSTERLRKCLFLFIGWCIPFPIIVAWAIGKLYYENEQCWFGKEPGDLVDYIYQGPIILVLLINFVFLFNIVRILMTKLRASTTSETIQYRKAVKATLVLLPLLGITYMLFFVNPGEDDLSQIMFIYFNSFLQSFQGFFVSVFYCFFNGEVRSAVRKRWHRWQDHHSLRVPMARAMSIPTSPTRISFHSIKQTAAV
T2 sequence (P24387 whole entry): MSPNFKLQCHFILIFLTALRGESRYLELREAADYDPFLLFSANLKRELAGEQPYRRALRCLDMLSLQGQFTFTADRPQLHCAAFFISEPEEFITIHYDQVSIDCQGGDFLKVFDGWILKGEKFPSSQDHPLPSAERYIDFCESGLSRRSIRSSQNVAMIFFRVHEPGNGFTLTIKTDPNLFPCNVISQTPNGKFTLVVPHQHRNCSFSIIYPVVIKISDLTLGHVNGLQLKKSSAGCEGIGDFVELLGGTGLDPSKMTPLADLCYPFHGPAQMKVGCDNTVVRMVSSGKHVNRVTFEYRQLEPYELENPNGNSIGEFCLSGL

[6] = biological target: T2, Corticotropin-releasing factor receptor 2/Corticotropin-releasing factor-binding protein; experiment: activators of CRF receptor 2 with binding protein – uHTS hits, confirmation (AID 602473); type: functional; conditions: read-out: EC50_Mean
[7] = biological target: T3, Histone-lysine N-methyltransferase NSD2 (Homo sapiens, UniProt O96028); type: biochemical
T3 sequence (O96028 whole entry): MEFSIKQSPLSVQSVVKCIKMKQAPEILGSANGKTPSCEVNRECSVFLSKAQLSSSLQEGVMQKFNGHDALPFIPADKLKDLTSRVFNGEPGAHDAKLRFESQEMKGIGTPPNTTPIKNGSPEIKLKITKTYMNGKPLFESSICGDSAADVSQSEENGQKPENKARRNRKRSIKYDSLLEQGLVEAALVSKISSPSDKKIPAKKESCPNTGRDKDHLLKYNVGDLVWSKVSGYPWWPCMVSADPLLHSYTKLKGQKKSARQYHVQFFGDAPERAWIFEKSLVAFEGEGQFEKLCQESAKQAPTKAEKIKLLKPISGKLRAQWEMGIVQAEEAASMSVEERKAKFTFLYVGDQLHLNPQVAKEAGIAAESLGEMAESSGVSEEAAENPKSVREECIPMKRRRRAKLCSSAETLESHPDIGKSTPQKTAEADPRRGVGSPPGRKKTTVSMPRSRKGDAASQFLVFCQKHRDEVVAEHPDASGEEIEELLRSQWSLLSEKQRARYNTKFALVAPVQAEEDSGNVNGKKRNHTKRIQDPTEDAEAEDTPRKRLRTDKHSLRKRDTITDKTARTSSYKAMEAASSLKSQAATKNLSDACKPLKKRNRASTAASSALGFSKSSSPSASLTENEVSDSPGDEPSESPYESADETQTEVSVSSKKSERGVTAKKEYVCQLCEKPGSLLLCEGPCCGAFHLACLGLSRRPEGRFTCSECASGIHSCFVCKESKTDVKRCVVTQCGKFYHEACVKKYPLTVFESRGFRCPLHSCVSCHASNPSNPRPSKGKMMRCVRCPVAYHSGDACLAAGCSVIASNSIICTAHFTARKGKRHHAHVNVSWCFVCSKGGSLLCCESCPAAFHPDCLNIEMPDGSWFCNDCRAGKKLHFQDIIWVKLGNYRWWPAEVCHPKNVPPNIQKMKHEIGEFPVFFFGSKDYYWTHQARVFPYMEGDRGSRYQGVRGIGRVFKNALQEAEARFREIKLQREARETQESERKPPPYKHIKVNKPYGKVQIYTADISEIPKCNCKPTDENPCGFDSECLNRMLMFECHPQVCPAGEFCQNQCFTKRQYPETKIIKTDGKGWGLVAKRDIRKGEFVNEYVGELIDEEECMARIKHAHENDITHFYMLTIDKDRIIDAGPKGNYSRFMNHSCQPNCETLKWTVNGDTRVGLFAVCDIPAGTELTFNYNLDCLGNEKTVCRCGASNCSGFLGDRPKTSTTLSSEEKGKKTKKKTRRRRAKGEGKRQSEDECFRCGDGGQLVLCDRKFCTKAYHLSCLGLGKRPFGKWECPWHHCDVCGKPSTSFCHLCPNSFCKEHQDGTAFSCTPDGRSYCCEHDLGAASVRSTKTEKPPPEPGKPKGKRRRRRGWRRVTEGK

[8] = biological target: T4, Ubiquitin-conjugating enzyme E2 N (Homo sapiens, UniProt P61088); type: functional;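 also: Dose-response confirmation in a TR-FRET assay detecting UBC13-driven polyubiquitin chain formation, inhibition measured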
T4 sequence (P61088 whole entry): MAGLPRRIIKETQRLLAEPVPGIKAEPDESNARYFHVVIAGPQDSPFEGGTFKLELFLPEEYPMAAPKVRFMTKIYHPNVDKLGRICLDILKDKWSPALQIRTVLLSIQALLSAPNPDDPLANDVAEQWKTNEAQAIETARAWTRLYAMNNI

Cytochrome P450 3A4, sequence (P08684 whole entry): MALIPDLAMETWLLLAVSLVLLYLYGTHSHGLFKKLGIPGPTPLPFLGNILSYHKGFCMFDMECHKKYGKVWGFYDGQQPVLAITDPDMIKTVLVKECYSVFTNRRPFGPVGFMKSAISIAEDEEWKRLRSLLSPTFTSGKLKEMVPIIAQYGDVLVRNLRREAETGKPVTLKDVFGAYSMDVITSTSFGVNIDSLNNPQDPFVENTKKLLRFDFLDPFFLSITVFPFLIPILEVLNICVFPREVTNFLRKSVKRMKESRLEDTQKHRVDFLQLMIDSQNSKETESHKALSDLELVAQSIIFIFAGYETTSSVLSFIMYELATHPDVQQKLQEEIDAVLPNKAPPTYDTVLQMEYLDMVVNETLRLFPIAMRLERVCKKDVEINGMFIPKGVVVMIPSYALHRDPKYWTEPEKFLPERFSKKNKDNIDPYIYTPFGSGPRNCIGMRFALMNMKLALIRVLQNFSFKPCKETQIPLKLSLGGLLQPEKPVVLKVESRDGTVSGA
Cytochrome P450 2C9, sequence (P11712 whole entry): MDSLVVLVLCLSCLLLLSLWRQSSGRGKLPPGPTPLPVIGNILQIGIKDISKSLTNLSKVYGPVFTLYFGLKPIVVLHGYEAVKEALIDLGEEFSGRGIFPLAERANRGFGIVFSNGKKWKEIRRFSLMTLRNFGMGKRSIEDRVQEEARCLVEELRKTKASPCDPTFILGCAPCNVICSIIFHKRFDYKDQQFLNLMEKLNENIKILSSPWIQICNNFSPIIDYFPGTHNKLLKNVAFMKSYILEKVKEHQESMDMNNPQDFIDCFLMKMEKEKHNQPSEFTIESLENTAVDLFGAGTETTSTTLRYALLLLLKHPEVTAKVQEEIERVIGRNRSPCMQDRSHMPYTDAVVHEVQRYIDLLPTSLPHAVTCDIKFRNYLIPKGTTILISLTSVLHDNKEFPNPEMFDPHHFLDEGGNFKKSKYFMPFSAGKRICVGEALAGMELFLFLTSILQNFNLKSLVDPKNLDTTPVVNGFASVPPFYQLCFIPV
Protein Wnt-3a, sequence (P27467 whole entry): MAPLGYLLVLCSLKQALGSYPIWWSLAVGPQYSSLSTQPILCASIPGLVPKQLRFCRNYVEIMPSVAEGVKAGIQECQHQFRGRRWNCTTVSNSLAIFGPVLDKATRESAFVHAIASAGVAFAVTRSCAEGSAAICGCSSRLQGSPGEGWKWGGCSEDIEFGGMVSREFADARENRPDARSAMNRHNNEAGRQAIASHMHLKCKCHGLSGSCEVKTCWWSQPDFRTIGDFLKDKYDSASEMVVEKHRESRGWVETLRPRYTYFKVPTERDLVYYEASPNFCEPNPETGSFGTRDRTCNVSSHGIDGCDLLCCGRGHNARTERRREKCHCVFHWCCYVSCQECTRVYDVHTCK
Cytochrome P450 2C19, sequence (P33261 whole entry): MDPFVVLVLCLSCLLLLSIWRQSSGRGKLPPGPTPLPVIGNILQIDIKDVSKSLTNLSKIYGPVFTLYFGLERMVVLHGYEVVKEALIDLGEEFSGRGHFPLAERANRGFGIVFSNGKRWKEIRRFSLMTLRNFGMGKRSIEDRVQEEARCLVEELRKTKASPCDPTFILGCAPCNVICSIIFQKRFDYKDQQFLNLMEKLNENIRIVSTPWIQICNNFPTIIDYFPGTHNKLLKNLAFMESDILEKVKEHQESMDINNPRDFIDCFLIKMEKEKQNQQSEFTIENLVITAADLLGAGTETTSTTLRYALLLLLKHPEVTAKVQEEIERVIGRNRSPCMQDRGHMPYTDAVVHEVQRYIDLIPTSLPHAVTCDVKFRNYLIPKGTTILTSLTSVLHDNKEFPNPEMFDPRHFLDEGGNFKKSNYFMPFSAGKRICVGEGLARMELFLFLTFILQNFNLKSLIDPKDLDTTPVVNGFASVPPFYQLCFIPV
Cytochrome P450 2D6, sequence (P10635 whole entry): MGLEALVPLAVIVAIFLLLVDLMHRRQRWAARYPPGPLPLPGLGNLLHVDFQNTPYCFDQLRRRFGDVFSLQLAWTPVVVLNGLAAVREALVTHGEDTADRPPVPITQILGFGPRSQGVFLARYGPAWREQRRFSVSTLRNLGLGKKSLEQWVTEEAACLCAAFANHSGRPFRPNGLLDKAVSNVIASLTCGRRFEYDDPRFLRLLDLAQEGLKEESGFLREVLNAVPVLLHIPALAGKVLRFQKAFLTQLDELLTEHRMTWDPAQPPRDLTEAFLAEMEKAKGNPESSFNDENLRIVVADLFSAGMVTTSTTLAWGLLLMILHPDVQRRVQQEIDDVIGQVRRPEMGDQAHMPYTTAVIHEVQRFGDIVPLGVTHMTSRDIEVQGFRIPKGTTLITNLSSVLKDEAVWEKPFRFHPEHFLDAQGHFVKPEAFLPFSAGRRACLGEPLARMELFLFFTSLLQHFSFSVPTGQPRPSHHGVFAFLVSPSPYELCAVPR

Compound: O=C(c1cccc(F)c1)N1CCC2(CC1)CCN(c1ccc(-c3ccccc3)cc1)CC2
- AC50 (Cytochrome P450 2D6): 10 µM (inconclusive)
- AC50 (Cytochrome P450 3A4): inconclusive

Compound: CSc1nc(-c2ccc(Cl)cc2)nn1S(=O)(=O)c1ccccc1
- IC50 (cells [2]): > 29.9 µM (inactive)
- EC50 (cells [3]): > 29.9 µM (inactive)

Compound: Cc1nn(-c2ccc(N3CCCCC3)nn2)c(C)c1CCC(=O)Nc1ccccc1F
- IC50 [4]: > 80 µM (inactive)

Compound: COc1ccc(CCN2C(=O)CC(NNC(=O)c3ccc(F)cc3)C2=O)cc1OC (configuration not stated)
- AC50 (Escherichia coli): 20.9 µM (active)

Compound: Cn1c(=O)c(-c2cc(F)cc(F)c2)nc2cnc(Oc3ccccc3)nc21
- AC50 (Cytochrome P450 2C9): 20 µM (inconclusive)
- AC50 (Cytochrome P450 3A4): inconclusive

Compound: N#Cc1c(Cl)nc2c(c1C#N)CCCC2
- IC50 [5]: > 47.1 µM (inactive)
- EC50 [6]: > 53 µM (inactive)
- AC50 [7]: 11.8 µM (active)

Compound: O=C(CN1C(=O)NC2(CCCCC2)C1=O)NCc1cccs1
- AC50 (Escherichia coli): 34.2 µM (active)

Compound: O=C(O)C1C2C=CC(C2)C1C(=O)NCCc1cccc(Cl)c1 (configuration not stated)
- IC50 [5]: > 47.1 µM (inactive)
- EC50 [6]: > 53 µM (inactive)
- IC50 (cells [2]): > 29.9 µM (inactive)
- EC50 (cells [3]): > 29.9 µM (inactive)

Compound: Cc1ccsc1CNc1ncnc2ccc(-c3c(C)noc3C)cc12
- IC50 [8]: > 20 µM (inactive)
- IC50 (Protein Wnt-3a): 14.8 µM (active)

Other lines, results leading:

- EC50 [1]: > 195 µM (not active)
- AC50 (Cytochrome P450 2C19): 10 µM (inconclusive)
- AC50 (Cytochrome P450 2C9): 17.8 µM (inconclusive)
- AC50 (Cytochrome P450 3A4): inconclusive
Compound: CCC(C)(NC(=O)c1ccccn1)C(=O)NC1CCCCC1 (configuration not stated)

- AC50 (Cytochrome P450 2C9): 25.1 µM (inconclusive)
- AC50 (Cytochrome P450 3A4): inconclusive
Compound: O=C(c1ccco1)N1CCC2(CC1)CN(c1ccccc1)C2

- IC50 (Protein Wnt-3a): 6.98 µM (active)
Compound: O=C(Nc1cccc(C(F)(F)F)c1)C1CCN(S(=O)(=O)c2ccc(N3CCCC3=O)cc2)CC1

- AC50 [7]: 16 µM (active)
Compound: Cc1ccc(-c2cc(C(F)(F)F)n3nc(C(=O)N4CCN5CCCC5C4)cc3n2)cc1 (configuration not stated)

- IC50 [8]: > 20 µM (inactive)
Compound: Cc1ccccc1C(=O)NCC(=O)NNC(=S)NC(=O)c1ccccc1C
